Measured values: US20220024921A1, “1,3,4-OXADIAZOLONE COMPOUND AND PHARMACEUTICAL” (NIPPON SHINYAKU CO., LTD., priority 2018, published 2022)
pIC50: −log10 of the molar value. Counter-ions that a name gives are not always drawn.

Legend:
[1] = target: PIM1 transgenic cells (Ba/F3) (Homo sapiens, UniProt P11309); experiment: Proliferation inhibitory effect on PIM1 transgenic cells; assay type: cell-based, mouse; conditions: proliferation inhibition, 72 hours, Cell Counting Kit-8, read-out: PIM1 IC50
PIM1 transgenic cells (Ba/F3), sequence (P11309 whole entry, stated change not applied): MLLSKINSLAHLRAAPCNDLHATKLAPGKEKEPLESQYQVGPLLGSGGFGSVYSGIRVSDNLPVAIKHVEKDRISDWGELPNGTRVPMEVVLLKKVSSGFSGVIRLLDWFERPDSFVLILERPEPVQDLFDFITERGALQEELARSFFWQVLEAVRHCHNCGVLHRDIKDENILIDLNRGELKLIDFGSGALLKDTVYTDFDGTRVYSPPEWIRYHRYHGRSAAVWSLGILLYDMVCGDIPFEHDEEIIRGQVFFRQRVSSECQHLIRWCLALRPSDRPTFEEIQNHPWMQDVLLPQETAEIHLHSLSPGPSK
Method in brief: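 Mouse Ba/F3 pro-B cells were retrovirally transduced with human PIM1 so that their proliferation depends on PIM1. Cells were treated with compound at 1–10000 nM final for 72 h, then read by CCK-8 (OD450−OD650). Inhibition was set against DMSO (0%) and no-cell blank (100%), and IC50 was obtained by two-parameter logistic regression.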

[2] = target: T1, PIM1 serine/threonine kinase (Homo sapiens, UniProt P11309); experiment: PIM1 serine/threonine kinase inhibitory effect; assay type: biochemical; conditions: PIM1 serine/threonine kinase activity; ATP 40 μM; 30° C., 30 minutes
T1 construct: purchased Carna Bioscience, Inc
T1 sequence (P11309 whole entry): as the sequence (P11309 whole entry, stated change not applied) above
Method in brief: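 Recombinant PIM1 (0.15 μg/ml final) with 0.5 μM biotinylated substrate and 40 μM ATP in pH 7.0 HEPES/MgCl2 buffer, 30 min at 30° C. Compound range was 0.01–10000 nM final, n=2. HTRF detection with streptavidin-XL665 and anti-phospho antibody-cryptate, 1 h; IC50 from non-linear regression of the 665/620 ratio.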

GI50 [1] [nM]	pIC50 [2]	SMILES
2100	8.46	C[C@H](Nc1cc(-c2n[nH]c(=O)o2)cc(C#N)c1Cl)C1CCNCC1 [Example 110, 2-chloro-5-(5-oxo-4,5-dihydro-1,3,4-oxadiazol-2-yl)-3-{[(1S)-1-(piperidin-4-yl)ethyl]amino}benzonitrile hydrochloride]
440	7.68	O=c1[nH]nc(-c2ccc(C(F)(F)F)c(NC[C@@H]3CCNC[C@H]3F)c2)o1 [Example 127, 5-[3-({[(3S,4S)-3-fluoropiperidin-4-yl]methyl}amino)-4-(trifluoromethyl)phenyl]-1,3,4-oxadiazol-2(3H)-one hydrochloride]
22	8.48	C[C@H](Nc1cc(-c2n[nH]c(=O)o2)cc(F)c1C1CC1)[C@H]1CC[C@H](N)CC1 [Example 230, 5-[3-({(1S)-1-[(1r,4S)-4-aminocyclohexyl]ethyl}amino)-4-cyclopropyl-5-fluorophenyl]-1,3,4-oxadiazol-2(3H)-one]
44	8.66	CN[C@H]1CC[C@H]([C@H](C)Nc2cc(-c3n[nH]c(=O)o3)ccc2C(F)(F)F)CC1 [Example 189, 5-[3-({(1S)-1-[(1r,4S)-4-(methylamino)cyclohexyl]ethyl}amino)-4-(trifluoromethyl)phenyl]-1,3,4-oxadiazol-2(3H)-one hydrochloride]
560	8.06	C[C@H](Nc1cc(-c2n[nH]c(=O)o2)ccc1C(F)(F)F)[C@H]1CC[C@H](NCCO)CC1 [Example 201, 5-[3-{[(1S)-1-{(1r,4S)-4-[(2-hydroxyethyl)amino]cyclohexyl}ethyl]amino}-4-(trifluoromethyl)phenyl]-1,3,4-oxadiazol-2(3H)-one hydrochloride]
610	8.33	C[C@H](Nc1cc(-c2n[nH]c(=O)o2)ccc1C#N)C1CCNCC1 [Example 85, 4-(5-oxo-4,5-dihydro-1,3,4-oxadiazol-2-yl)-2-{[(1S)-1-(piperidin-4-yl)ethyl]amino}benzonitrile hydrochloride]
260	8.72	C[C@H](Nc1cc(-c2n[nH]c(=O)o2)cc2[nH]ncc12)C1CCNCC1 [Example 100, 5-(4-{[(1S)-1-(piperidin-4-yl)ethyl]amino}-1H-indazol-6-yl)-1,3,4-oxadiazol-2(3H)-one dihydrochloride]
340	8.09	O=c1[nH]nc(-c2cc(F)c(Cl)c(NCC3(F)CCNCC3)c2)o1 [Example 123, 5-(4-chloro-3-fluoro-5-{[(4-fluoropiperidin-4-yl)methyl]amino}phenyl)-1,3,4-oxadiazol-2(3H)-one hydrochloride]
40	8.92	O=c1[nH]nc(-c2cc(F)c(C(F)(F)F)c(N[C@@H](CF)C3CCNCC3)c2)o1 [Example 160, 5-[3-fluoro-5-{[(1R)-2-fluoro-1-(piperidin-4-yl)ethyl]amino}-4-(trifluoromethyl)phenyl]-1,3,4-oxadiazol-2(3H)-one hydrochloride]
250	8.15	C[C@H]1CNCC[C@H]1CNc1cc(-c2n[nH]c(=O)o2)ccc1C(F)(F)F [Example 141, 5-[3-({[(3R,4R)-3-methylpiperidin-4-yl]methyl}amino)-4-(trifluoromethyl)phenyl]-1,3,4-oxadiazol-2(3H)-one hydrochloride]
45	8.74	C[C@H](Nc1cc(-c2n[nH]c(=O)o2)cc(C(F)(F)F)c1Cl)[C@H]1C[C@@H](N)C1 [Example 183, 5-[3-({(1S)-1-[(1s,3R)-3-aminocyclobutyl]ethyl}amino)-4-chloro-5-(trifluoromethyl)phenyl]-1,3,4-oxadiazol-2(3H)-one hydrochloride]
730	8.21	N[C@H]1CC[C@@H](Nc2cc(-c3n[nH]c(=O)o3)ccc2Cl)CC1 [Example 33, 5-(3-{[(1s,4s)-4-aminocyclohexyl]amino}-4-chlorophenyl)-1,3,4-oxadiazol-2(3H)-one hydrochloride]
92	8.24	C[C@H](Nc1cc(-c2n[nH]c(=O)o2)ccc1C(F)(F)F)[C@@H]1[C@@H]2CC[C@H]1CNC2 [Example 155, 5-[3-({(1S)-1-[(1R,5S,8r)-3-azabicyclo[3.2.1]octan-8-yl]ethyl}amino)-4-(trifluoromethyl)phenyl]-1,3,4-oxadiazol-2(3H)-one hydrochloride]
47	8.59	CN[C@H]1C[C@@H]([C@H](C)Nc2cc(-c3n[nH]c(=O)o3)ccc2C(F)(F)F)C1 [Example 192, 5-[3-({(1S)-1-[(1s,3R)-3-(methylamino)cyclobutyl]ethyl}amino)-4-(trifluoromethyl)phenyl]-1,3,4-oxadiazol-2(3H)-one hydrochloride]
190	8.24	C[C@@H]1CN([C@@H](C)C2CCNCC2)c2cc(-c3n[nH]c(=O)o3)cc(F)c2O1 [Example 250, 5-{(2R)-8-fluoro-2-methyl-4-[(1S)-1-(piperidin-4-yl)ethyl]-3,4-dihydro-2H-1,4-benzoxazin-6-yl}-1,3,4-oxadiazol-2(3H)-one]
27	8.54	C[C@@H]1CNCC[C@@H]1[C@H](C)Nc1cc(-c2n[nH]c(=O)o2)ccc1OC(F)(F)F [Example 218, 5-[3-({(1S)-1-[(3S,4S)-3-methylpiperidin-4-yl]ethyl}amino)-4-(trifluoromethoxy)phenyl]-1,3,4-oxadiazol-2(3H)-one]
600	8.37	CC(CC1CCNCC1)Nc1cc(-c2n[nH]c(=O)o2)ccc1C(F)(F)F (stereo not shown) [Example 81, 5-[3-{[1-(piperidin-4-yl)propan-2-yl]amino}-4-(trifluoromethyl)phenyl]-1,3,4-oxadiazol-2(3H)-one hydrochloride]
540	7.52	CC(C)(CN)C1CCN(c2cc(-c3n[nH]c(=O)o3)ccc2C(F)(F)F)CC1 [Example 13, 5-{3-[4-(1-amino-2-methylpropan-2-yl)piperidin-1-yl]-4-(trifluoromethyl)phenyl}-1,3,4-oxadiazol-2(3H)-one]
18	8.80	C[C@H](Nc1cc(-c2n[nH]c(=O)o2)cc(Cl)c1Cl)[C@H]1CC[C@H](N)CC1 [Example 174, 5-[3-({(1S)-1-[(1r,4S)-4-aminocyclohexyl]ethyl}amino)-4,5-dichlorophenyl]-1,3,4-oxadiazol-2(3H)-one hydrochloride]
4100	7.59	O=c1[nH]nc(-c2cc(Br)c3cnn(CC4CCNCC4)c3c2)o1 [Example 124, 5-{4-bromo-1-[(piperidin-4-yl)methyl]-1H-indazol-6-yl}-1,3,4-oxadiazol-2(3H)-one hydrochloride]
260	7.92	C[C@H]1CN([C@@H](C)C2CCNCC2)c2cc(-c3n[nH]c(=O)o3)cc(F)c2O1 [Example 251, 5-{(2S)-8-fluoro-2-methyl-4-[(1S)-1-(piperidin-4-yl)ethyl]-3,4-dihydro-2H-1,4-benzoxazin-6-yl}-1,3,4-oxadiazol-2(3H)-one]
1100	7.74	O=c1[nH]nc(-c2ccc(C(F)(F)F)c(C#CC3CCNCC3)c2)o1 [Example 29, 5-{3-[(piperidin-4-yl)ethynyl]-4-(trifluoromethyl)phenyl}-1,3,4-oxadiazol-2(3H)-one hydrochloride]
190	8.04	NC1CC2(C1)CC(Nc1cc(-c3n[nH]c(=O)o3)ccc1C(F)(F)F)C2 (stereo not shown) [Example 43, 5-{3-[(6-aminospiro[3.3]heptan-2-yl)amino]-4-(trifluoromethyl)phenyl}-1,3,4-oxadiazol-2(3H)-one hydrochloride]
1900	6.85	C[C@H](Nc1cc(-c2n[nH]c(=O)o2)ccc1C(F)(F)F)[C@H]1CC[C@H](NCC(F)(F)F)CC1 [Example 197, 5-[3-{[(1S)-1-{(1r,4S)-4-[(2,2,2-trifluoroethyl)amino]cyclohexyl}ethyl]amino}-4-(trifluoromethyl)phenyl]-1,3,4-oxadiazol-2(3H)-one hydrochloride]
24	8.70	O=c1[nH]nc(-c2cc(F)c(C(F)(F)F)c(N[C@@H](C(F)F)C3(F)CCNCC3)c2)o1 [Example 163, 5-[3-{[(1R)-2,2-difluoro-1-(4-fluoropiperidin-4-yl)ethyl]amino}-5-fluoro-4-(trifluoromethyl)phenyl]-1,3,4-oxadiazol-2(3H)-one hydrochloride]
110	8.40	COc1c(Cl)cc(-c2n[nH]c(=O)o2)cc1N[C@@H](C)C1CCNCC1 [Example 104, 5-(3-chloro-4-methoxy-5-{[(1S)-1-(piperidin-4-yl)ethyl]amino}phenyl)-1,3,4-oxadiazol-2(3H)-one hydrochloride]
440	8.21	N[C@H]1CC[C@H](Nc2cc(-c3n[nH]c(=O)o3)cc(F)c2Cl)CC1 [Example 40, 5-(3-{[(1r,4r)-4-aminocyclohexyl]amino}-4-chloro-5-fluorophenyl)-1,3,4-oxadiazol-2(3H)-one hydrochloride]
250	8.00	CC(Oc1cc(-c2n[nH]c(=O)o2)ccc1C(F)(F)F)C1CCNCC1 (stereo not shown) [Example 239, 5-{3-[1-(piperidin-4-yl)ethoxy]-4-(trifluoromethyl)phenyl}-1,3,4-oxadiazol-2(3H)-one]
200	8.15	CCC(Nc1cc(-c2n[nH]c(=O)o2)ccc1C(F)(F)F)C1CCNCC1 (stereo not shown) [Example 56, 5-[3-{[1-(piperidin-4-yl)propyl]amino}-4-(trifluoromethyl)phenyl]-1,3,4-oxadiazol-2(3H)-one hydrochloride]
